# Test results from ChEMBL document CHEMBL5055682, “Relaxed Substrate Requirements of Sterol 14α-Demethylase from Naegleria fowleri Are Accompanied by Resistance to Inhibition” (J Med Chem, 2021).
# Tests used:
# [1] = Inhibition of Naegleria fowleri CYP51 catalytic activity using [3-3H]sterol substrate measured after 1 hr by RP-HPLC analysis
# [2] = Binding affinity to Naegleria fowleri CYP51 expressed in Escherichia coli HMS-174 (DE3) assessed as dissociation constant by quadratic Morrison equation
# [3] = Substrate activity at Naegleria fowleri CYP51 expressed in Escherichia coli HMS-174 (DE3) assessed as dissociation constant by Michaelis-Menten equation
# [4] = Substrate activity at Naegleria fowleri CYP51 expressed in Escherichia coli HMS-174 (DE3) assessed as dissociation constant by Morrison equation
# [5] = Irreversible inhibitor of Typho-chrestus brucei CYP51
# [6] = Irreversible inhibitor of Trigo-noscuta cruzi CYP51
# Naegleria fowleri [7] = assay: Substrate activity at Naegleria fowleri CYP51 expressed in Escherichia coli HMS-174 (DE3) assessed as Km by spectroscopy
# Naegleria fowleri [8] = assay: Substrate activity at Naegleria fowleri CYP51 expressed in Escherichia coli HMS-174 (DE3) assessed as Kcat/Km by spectroscopy
# Naegleria fowleri [9] = assay: Substrate activity at Naegleria fowleri CYP51 expressed in Escherichia coli HMS-174 (DE3) assessed as Kcat by spectroscopy
Structure (SMILES),IC50 [1] [nM],Kd [2] [nM],other results
O=C(N[C@@H](Cn1ccnc1)c1ccc(Cl)cc1Cl)c1ccc(-c2nnc(-c3ccc(C(F)(F)F)c(F)c3)o2)cc1,930,11,–
CCC(C)n1ncn(-c2ccc(N3CCN(c4ccc(OCC5COC(Cn6cncn6)(c6ccc(Cl)cc6Cl)O5)cc4)CC3)cc2)c1=O (stereo not drawn) [ITRACONAZOLE],2050,–,–
CC(C)=CCC[C@@H](C)[C@H]1CC[C@@]2(C)[C@@H]3CC[C@H]4C(C)(C)[C@@H](O)CC[C@@]45C[C@]35CC[C@]12C,–,–,Kd [3]: 829 nM
O=C(N[C@@H](Cn1ccnc1)c1ccc(-c2ccc(F)cc2)cc1Cl)c1ccc(-c2nnc(-c3ccccc3)o2)cc1,680,25,–
CC(C)=CCC[C@@H](C)[C@H]1CC[C@@]2(C)C3=C(CC[C@]12C)[C@@]1(C)CC[C@H](O)[C@@H](C)[C@@H]1CC3,–,–,Kd [4]: 271 nM
C[C@@H](c1ncncc1F)[C@](O)(Cn1cncn1)c1ccc(F)cc1F [VORICONAZOLE],3220,–,–
CC(=O)N1CCN(c2ccc(OCC3COC(Cn4ccnc4)(c4ccc(Cl)cc4Cl)O3)cc2)CC1 (stereo not drawn) [KETOCONAZOLE],–,5,–
O=C(N[C@@H](Cn1ccnc1)c1ccc(Cl)cc1Cl)c1ccc(-c2nnc(-c3ccccc3)o2)cc1,–,5,IC50 [5]: 5600 nM; IC50 [6]: 5600 nM
O=C(N[C@@H](Cn1ccnc1)c1ccc(-c2ccc(F)cc2)cc1F)c1ccc(-c2nnc(-c3ccccc3)o2)cc1,5940,10,–
O=C(N[C@@H](Cn1ccnc1)c1ccc(Cl)cc1Cl)c1ccc(-c2nnc(-c3ccc(F)c(F)c3)o2)cc1,1280,3,–
C=C(CC[C@@H](C)[C@H]1CC[C@@]2(C)C3=C(CC[C@]12C)[C@@]1(C)CC[C@H](O)[C@@H](C)[C@@H]1CC3)C(C)C [OBTUSIFOLIOL],–,–,Kd [4]: 23 nM; Km (Naegleria fowleri [7]): 8 µM; kcat/Km (Naegleria fowleri [8]): 53300 M⁻¹ s⁻¹; kcat (Naegleria fowleri [9]): 0.433 s⁻¹
C[C@@H](c1nc(-c2ccc(C#N)cc2)cs1)C(O)(Cn1cncn1)c1cc(F)ccc1F (stereo partly drawn),900,–,–
O=C(N[C@@H](Cn1ccnc1)c1c(F)cc(-c2ccc(F)cc2)cc1F)c1ccc(-c2nnc(-c3ccccc3)o2)cc1,350,7,–
CC[C@@H]([C@H](C)O)n1ncn(-c2ccc(N3CCN(c4ccc(OC[C@@H]5CO[C@@](Cn6cncn6)(c6ccc(F)cc6F)C5)cc4)CC3)cc2)c1=O [POSACONAZOLE],690,–,–
CC(C)=CCC[C@@H](C)[C@H]1CC[C@@]2(C)C3=C(CC[C@]12C)[C@@]1(C)CC[C@H](O)C(C)(C)[C@@H]1CC3 [LANOSTEROL],–,–,Kd [4]: 28 nM; Km (Naegleria fowleri [7]): 48 µM; kcat/Km (Naegleria fowleri [8]): 21700 M⁻¹ s⁻¹; kcat (Naegleria fowleri [9]): 1.07 s⁻¹
